Experimental data: ChEMBL document CHEMBL1201862, “PubChem BioAssay data set” (2004)
Activity calls are given as the source filed them.

Tests used:
BJ [1] = assay: BJ-TERT fibroblast viability loss – cell-based, RAS-independent, luminescence, dose response (AID 1933); assay type: functional; details: Homo sapiens
[2] = DRD fibroblast viability loss – cell-based, non-viral oncogenic, luminescence, dose response (AID 1934); assay type: functional; details: Homo sapiens
HeLa = assay: Cytotoxicity counterscreen assay for transcriptional activators of heat shock protein 70 (Hsp70). [Related pubchem assays: 1203, 1252 ]; assay type: functional; details: Homo sapiens;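 further: cells exposed to compound for 16 hours before readout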
BJ [3] = assay: BJ-TERT-LT-ST fibroblast viability loss – cell-based, RAS-independent, luminescence, dose response (AID 1935); assay type: functional; details: Homo sapiens;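 further: BJ fibroblasts immortalized with TERT plus LT and ST oncogenes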
BJ [4] = assay: cells; assay type: functional, cell-based; details: Homo sapiens
Beta-galactosidase [5] = molecular target: T1, Beta-galactosidase (Escherichia coli, UniProt Q8VNN2); assay type: functional
T1 sequence (Q8VNN2 whole entry): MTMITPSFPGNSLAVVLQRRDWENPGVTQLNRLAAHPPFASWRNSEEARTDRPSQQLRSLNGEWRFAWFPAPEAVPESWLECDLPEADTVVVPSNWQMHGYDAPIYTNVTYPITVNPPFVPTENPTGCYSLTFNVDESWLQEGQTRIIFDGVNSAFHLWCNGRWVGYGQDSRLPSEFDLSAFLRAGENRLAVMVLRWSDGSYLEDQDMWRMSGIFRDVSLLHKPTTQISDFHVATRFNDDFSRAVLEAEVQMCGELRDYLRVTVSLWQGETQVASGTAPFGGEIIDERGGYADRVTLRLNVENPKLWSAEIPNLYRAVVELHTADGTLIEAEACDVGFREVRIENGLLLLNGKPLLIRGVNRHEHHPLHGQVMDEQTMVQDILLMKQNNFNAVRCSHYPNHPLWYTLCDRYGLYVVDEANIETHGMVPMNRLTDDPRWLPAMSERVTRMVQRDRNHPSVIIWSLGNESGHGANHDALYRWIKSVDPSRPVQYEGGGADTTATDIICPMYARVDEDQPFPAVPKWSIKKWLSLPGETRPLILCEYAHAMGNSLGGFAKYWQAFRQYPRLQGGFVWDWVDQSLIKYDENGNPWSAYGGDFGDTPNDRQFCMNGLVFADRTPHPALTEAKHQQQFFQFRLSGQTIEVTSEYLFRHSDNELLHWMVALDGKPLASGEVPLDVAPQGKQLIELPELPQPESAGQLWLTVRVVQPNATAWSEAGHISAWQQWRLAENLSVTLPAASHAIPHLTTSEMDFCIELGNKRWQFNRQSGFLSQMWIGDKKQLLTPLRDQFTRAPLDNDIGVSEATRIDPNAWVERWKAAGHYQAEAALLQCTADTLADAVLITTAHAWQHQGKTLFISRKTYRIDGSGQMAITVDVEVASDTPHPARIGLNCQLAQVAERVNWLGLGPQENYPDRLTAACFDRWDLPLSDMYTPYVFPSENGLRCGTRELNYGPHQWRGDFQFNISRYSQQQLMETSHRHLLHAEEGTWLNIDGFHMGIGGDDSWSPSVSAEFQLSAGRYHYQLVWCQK

[6] = molecular target: T2, Kappa-type opioid receptor (Homo sapiens, UniProt P41145); assay type: functional
T2 sequence (P41145 whole entry, the tested form may be a part): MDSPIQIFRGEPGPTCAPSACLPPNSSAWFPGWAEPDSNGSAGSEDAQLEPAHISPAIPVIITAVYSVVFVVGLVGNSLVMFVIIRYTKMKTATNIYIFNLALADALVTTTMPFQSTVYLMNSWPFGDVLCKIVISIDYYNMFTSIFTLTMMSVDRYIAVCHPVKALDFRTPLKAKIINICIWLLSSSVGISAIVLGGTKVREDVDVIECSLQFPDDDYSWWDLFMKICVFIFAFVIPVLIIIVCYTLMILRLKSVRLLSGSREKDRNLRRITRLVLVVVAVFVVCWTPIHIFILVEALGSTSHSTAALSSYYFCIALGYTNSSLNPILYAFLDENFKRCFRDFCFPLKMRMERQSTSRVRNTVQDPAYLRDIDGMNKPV

[7] = molecular target: T3, Polyadenylate-binding protein 1 (Homo sapiens, UniProt P11940); assay: MLLE domain peptide-binding blockers, IC50 – biochemical, fluorescence polarization, FITC-PAM2 peptide, dose response (AID 602259); assay type: functional; details: read-out: IC50_Mean
T3 sequence (P11940 whole entry, the tested form may be a part): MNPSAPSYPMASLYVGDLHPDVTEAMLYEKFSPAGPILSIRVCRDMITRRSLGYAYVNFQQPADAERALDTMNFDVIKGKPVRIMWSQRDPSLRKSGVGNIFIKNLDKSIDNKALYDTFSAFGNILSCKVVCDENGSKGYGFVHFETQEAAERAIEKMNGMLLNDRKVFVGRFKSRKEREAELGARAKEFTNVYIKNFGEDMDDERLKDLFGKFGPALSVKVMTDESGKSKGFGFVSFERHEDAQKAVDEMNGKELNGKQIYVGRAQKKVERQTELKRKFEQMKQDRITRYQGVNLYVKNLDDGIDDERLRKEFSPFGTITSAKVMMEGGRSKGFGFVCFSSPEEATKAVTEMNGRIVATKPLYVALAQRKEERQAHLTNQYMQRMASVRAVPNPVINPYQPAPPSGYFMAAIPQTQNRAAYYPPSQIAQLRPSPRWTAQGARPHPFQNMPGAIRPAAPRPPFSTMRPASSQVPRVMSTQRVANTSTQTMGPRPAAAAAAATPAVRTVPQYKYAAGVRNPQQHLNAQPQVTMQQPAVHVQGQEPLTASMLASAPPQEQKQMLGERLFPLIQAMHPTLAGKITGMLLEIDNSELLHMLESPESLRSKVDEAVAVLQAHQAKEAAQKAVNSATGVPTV

Beta-galactosidase [8] = molecular target: T1, Beta-galactosidase; assay: detection-enzyme interference by beta-gal modulators – biochemical, E. coli enzyme, set 3, artefact control for CCR6 antagonist project, dose response (AID 504712); assay type: functional
[9] = molecular target: T2, Kappa-type opioid receptor; assay type: functional; remark: listed apart in the source
[10] = molecular target: T4, C-C chemokine receptor type 6 (Homo sapiens, UniProt P51684); assay: antagonism of CCR6 beta-arrestin recruitment – cell-based, luminescent beta-arrestin readout, dose response (AID 504728); assay type: functional
T4 sequence (P51684 whole entry): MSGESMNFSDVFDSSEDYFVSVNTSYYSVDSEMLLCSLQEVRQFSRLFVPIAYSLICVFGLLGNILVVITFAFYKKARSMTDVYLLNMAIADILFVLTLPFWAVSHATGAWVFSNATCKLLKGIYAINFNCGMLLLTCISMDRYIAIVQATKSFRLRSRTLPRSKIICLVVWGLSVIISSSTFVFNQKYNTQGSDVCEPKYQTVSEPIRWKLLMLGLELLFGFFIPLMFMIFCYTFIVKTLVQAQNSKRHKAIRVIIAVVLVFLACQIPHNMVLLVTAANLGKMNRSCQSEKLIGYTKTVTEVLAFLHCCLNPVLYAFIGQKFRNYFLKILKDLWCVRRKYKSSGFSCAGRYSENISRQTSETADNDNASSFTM

[11] = molecular target: T3, Polyadenylate-binding protein 1; assay: MLLE binding blockers, Cy5 peptide tracer – biochemical, fluorescence polarization, Cy5-PAM2 peptide, secondary, miRNA deadenylation inhibitor project, dose response (AID 602260); assay type: functional; details: read-out: IC50_Mean
[12] = molecular target: Epstein-Barr nuclear antigen 1 (Epstein-Barr virus (strain B95-8) (HHV-4) (Human herpesvirus 4), UniProt P03211); assay: inhibition of EBV nuclear antigen 1 DNA binding – biochemical, fluorescence polarization, 1536-well, dose response (AID 2381); parameters: species or system human gammaherpesvirus 4;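 further: fluorescence polarization of a Cy5 DNA probe bound by EBNA-1 protein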
Sequence of Epstein-Barr nuclear antigen 1 (P03211 whole entry): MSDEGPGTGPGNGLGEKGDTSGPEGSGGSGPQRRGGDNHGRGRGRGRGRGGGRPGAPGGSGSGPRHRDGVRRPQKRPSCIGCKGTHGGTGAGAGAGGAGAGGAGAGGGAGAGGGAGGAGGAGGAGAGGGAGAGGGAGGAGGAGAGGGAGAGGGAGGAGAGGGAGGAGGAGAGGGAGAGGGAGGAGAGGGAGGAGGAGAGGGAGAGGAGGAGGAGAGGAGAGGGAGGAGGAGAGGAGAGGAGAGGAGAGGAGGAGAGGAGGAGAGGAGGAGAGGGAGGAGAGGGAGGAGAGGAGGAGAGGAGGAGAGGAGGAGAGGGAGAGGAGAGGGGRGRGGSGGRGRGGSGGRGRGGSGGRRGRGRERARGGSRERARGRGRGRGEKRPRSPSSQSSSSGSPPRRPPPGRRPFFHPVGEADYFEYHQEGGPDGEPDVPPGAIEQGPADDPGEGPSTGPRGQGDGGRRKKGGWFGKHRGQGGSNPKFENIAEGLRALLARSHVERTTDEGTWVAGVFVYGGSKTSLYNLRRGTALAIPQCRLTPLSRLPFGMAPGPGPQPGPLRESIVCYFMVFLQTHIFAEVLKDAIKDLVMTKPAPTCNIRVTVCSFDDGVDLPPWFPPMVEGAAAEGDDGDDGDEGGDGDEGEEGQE

[13] = molecular target: Lytic switch protein BZLF1 (Epstein-Barr virus (strain B95-8) (HHV-4) (Human herpesvirus 4), UniProt P03206); assay: inhibition of BZLF1 ZTA DNA binding – biochemical, fluorescence polarization, Epstein-Barr virus, 1536-well, counter-screen for EBNA-1 inhibitor project, dose response (AID 2377); parameters: species or system human gammaherpesvirus 4;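 further: fluorescence polarization of Cy5-labelled ZRE DNA probe bound by purified Zta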
Sequence of Lytic switch protein BZLF1 (P03206 whole entry): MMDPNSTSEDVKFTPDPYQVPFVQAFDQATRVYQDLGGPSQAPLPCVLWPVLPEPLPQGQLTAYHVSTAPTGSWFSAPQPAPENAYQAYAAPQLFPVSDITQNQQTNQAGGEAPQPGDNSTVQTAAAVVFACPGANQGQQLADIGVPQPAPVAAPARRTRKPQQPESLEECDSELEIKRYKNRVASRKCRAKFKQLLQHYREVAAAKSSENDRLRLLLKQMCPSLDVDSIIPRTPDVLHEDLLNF

[14] = Luminescence Cell-Based Dose Retest to Confirm Inhibitors of Cancer Stem Cells. [Related pubchem assays (depositor defined):AID2717, AID2721]; assay type: functional; details: Homo sapiens
Nonstructural protein 1 = Nonstructural protein 1 (Influenza A virus, UniProt Q194T2); assay type: functional, Influenza A virus (A/California/07/2009(H1N1))
[15] = mitochondrial function rescue without frataxin homolog – Friedreich's ataxia, plus single-dose screen, dose response (AID 1465); assay type: functional;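 further: yeast depleted of Yfh1p frataxin homolog grown on glycerol needing respiration; WST-1 tetrazolium dye reduction as measure of cellular dehydrogenase metabolic activity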
cells [16] = assay: cells
Cytochrome P450 2C19 = Cytochrome P450 2C19 (Homo sapiens, UniProt P33261); assay: Cytochrome panel assay with activity outcomes. Panel member name: p450-cyp2c19 Compounds with AC50 equal or less than 10 uM are considered active; assay type: functional; details: read-out: AC50
Cytochrome P450 3A4 = Cytochrome P450 3A4 (Homo sapiens, UniProt P08684);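 further: CYP3A4 tested as one member of a cytochrome P450 panel screen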
Cytochrome P450 1A2 = molecular target: T5, Cytochrome P450 1A2 (Homo sapiens, UniProt P05177);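 further: PubChem cytochrome P450 panel assay, CYP1A2 panel member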
T5 sequence (P05177 whole entry): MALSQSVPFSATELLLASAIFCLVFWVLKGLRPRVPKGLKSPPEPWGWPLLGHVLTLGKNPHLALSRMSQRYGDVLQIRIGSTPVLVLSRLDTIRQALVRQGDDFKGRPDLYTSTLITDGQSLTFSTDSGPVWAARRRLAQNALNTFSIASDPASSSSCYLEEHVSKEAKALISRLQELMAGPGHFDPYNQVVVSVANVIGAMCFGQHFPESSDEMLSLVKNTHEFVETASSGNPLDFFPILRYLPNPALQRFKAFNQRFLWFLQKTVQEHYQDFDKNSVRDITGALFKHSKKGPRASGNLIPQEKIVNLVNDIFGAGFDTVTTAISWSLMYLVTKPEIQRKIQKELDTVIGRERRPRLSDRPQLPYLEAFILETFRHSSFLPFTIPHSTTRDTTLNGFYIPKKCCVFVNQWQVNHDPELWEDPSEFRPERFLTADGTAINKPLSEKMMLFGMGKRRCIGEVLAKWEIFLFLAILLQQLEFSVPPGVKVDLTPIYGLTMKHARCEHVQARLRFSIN

Leucine aminopeptidase = molecular target: T6, Leucine aminopeptidase (Plasmodium falciparum 3D7, UniProt Q8IL11); assay: P. falciparum M17LAP inhibitors, primary screen, biochemical, fluorogenic H-Leu-NHMec substrate, 1536-well (AID 1619); assay type: functional
T6 sequence (Q8IL11 whole entry): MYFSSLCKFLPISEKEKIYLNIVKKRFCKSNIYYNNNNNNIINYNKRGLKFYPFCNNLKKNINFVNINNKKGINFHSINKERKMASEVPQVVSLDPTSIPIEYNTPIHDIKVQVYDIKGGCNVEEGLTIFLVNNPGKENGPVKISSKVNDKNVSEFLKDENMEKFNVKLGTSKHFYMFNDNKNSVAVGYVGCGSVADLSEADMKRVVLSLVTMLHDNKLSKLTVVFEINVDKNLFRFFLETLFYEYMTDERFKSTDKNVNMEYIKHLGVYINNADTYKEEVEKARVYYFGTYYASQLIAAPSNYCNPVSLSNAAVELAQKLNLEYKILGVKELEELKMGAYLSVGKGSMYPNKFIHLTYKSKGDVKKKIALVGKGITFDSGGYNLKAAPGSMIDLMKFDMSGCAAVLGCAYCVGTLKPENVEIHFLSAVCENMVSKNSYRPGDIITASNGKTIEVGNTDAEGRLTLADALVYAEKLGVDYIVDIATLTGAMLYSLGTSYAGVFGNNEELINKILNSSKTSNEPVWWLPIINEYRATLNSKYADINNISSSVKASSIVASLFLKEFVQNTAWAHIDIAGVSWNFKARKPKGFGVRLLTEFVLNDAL

[17] = molecular target: T7, Mannose-6-phosphate isomerase (Homo sapiens, UniProt P34949); assay: MPI enzyme activity inhibition – biochemical, fluorescence intensity, coupled assay, primary screen (AID 1209)
T7 sequence (P34949 whole entry): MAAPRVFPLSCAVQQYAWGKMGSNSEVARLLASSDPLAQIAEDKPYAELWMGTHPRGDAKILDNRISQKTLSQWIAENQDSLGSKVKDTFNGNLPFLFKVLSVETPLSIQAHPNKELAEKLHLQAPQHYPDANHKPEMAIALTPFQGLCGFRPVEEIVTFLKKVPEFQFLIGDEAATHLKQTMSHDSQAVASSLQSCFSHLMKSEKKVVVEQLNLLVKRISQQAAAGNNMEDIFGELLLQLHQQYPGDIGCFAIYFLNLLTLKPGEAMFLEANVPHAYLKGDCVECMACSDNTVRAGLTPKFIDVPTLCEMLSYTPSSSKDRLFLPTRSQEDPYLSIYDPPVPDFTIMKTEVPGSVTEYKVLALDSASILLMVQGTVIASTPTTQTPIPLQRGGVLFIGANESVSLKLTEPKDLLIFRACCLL

cells [18] = assay type: functional
[19] = THP-1 cell cytotoxicity, dose response, cytotoxicity control for non-replicating M. tuberculosis project (AID 489025); assay type: functional
Cytochrome P450 2C9 [20] = molecular target: T8, Cytochrome P450 2C9 (Homo sapiens, UniProt P11712)
[21] = molecular target: Peroxisome proliferator-activated receptor gamma/Nuclear receptor coactivator 3 (Homo sapiens, UniProt P37231); assay type: functional;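 further: agonist potency for raising coactivator recruitment to the receptor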
[22] = molecular target: Peroxisome proliferator-activated receptor gamma/Nuclear receptor coactivator 1 (Homo sapiens, UniProt P37231); assay type: functional;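 further: agonist potency as compounds enhance coactivator SRC-1 recruitment to PPARgamma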
[23] = molecular target: Peroxisome proliferator-activated receptor gamma/Nuclear receptor coactivator 2 (Homo sapiens, UniProt P37231); assay type: functional;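 further: agonist potency for raising coactivator recruitment to the receptor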
Sequence of Peroxisome proliferator-activated receptor gamma/Nuclear receptor coactivator 2 (P37231 whole entry): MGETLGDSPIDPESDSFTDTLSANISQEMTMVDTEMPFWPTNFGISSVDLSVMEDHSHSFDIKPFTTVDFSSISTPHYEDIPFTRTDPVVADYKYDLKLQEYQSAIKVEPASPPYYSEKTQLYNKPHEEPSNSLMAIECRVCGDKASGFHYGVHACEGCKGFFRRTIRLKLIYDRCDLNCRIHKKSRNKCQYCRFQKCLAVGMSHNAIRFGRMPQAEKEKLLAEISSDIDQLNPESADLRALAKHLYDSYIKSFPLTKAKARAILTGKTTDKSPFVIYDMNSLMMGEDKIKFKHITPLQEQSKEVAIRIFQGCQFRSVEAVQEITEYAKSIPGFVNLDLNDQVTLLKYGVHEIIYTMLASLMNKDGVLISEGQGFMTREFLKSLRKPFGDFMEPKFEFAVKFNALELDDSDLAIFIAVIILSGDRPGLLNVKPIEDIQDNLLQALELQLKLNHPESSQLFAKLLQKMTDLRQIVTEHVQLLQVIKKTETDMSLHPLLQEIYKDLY
Sequence of Peroxisome proliferator-activated receptor gamma/Nuclear receptor coactivator 2 (Q15596 whole entry, further chain): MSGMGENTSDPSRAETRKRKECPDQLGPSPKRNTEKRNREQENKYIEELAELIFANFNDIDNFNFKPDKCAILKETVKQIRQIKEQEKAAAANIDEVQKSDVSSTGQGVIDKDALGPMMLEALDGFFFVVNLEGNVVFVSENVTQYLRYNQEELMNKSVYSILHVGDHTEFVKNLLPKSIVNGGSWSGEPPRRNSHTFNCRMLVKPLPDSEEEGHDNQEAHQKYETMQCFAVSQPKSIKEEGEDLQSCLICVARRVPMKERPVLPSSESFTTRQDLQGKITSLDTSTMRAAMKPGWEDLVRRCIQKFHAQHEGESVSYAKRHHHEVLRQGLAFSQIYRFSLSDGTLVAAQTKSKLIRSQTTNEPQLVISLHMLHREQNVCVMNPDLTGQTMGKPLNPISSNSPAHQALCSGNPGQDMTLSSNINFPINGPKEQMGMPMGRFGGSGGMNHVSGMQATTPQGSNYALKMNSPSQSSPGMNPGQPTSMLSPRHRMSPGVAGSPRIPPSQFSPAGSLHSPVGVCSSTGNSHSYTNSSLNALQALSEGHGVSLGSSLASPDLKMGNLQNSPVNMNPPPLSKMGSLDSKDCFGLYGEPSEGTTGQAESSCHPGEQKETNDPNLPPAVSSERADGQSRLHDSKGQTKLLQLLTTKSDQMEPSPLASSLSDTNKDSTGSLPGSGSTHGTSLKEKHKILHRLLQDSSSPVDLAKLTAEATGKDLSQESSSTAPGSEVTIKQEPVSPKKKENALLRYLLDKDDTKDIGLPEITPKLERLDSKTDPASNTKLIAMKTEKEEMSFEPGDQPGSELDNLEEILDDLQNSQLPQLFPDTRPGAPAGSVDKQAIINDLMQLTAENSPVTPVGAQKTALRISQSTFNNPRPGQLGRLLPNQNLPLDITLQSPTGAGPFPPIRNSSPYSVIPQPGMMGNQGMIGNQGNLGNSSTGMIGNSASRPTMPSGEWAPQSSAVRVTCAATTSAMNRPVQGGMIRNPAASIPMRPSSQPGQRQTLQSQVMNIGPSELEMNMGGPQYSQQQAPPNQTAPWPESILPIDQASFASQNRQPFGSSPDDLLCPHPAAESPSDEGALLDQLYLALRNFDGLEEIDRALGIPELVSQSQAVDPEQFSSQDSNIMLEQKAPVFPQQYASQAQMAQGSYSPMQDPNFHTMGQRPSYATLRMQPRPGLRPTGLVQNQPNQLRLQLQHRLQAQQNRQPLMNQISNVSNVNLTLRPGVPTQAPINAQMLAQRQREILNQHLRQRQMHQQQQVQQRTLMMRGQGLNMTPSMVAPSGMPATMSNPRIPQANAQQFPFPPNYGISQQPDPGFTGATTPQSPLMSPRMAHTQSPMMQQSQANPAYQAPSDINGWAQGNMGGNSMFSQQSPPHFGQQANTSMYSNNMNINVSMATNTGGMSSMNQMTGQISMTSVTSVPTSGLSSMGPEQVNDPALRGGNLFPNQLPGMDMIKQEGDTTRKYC

[24] = molecular target: FAD-linked sulfhydryl oxidase ALR (Homo sapiens, UniProt P55789); assay: ALR-catalysed DTT oxidation blockers – biochemical, H2O2 detection, luminescence, cherry-pick, dose response (AID 493248)
[25] = molecular target: T9, Corticotropin-releasing factor receptor 2/Corticotropin-releasing factor-binding protein (Homo sapiens, UniProt P24387+Q13324); assay: activators of CRF receptor 2 with binding protein – uHTS hits, confirmation (AID 602473); assay type: functional; details: read-out: EC50_Mean
T9 sequence (Q13324 whole entry): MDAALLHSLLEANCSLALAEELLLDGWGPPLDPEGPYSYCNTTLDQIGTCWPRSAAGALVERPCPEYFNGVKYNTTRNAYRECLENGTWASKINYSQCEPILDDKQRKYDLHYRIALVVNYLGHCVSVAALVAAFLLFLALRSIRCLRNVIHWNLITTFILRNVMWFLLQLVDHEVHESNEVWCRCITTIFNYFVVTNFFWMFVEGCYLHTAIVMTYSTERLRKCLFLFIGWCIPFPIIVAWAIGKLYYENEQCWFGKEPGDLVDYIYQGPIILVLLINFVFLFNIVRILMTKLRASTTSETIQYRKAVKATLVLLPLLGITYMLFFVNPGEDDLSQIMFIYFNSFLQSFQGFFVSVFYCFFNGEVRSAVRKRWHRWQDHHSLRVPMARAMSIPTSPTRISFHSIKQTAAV
T9 sequence (P24387 whole entry): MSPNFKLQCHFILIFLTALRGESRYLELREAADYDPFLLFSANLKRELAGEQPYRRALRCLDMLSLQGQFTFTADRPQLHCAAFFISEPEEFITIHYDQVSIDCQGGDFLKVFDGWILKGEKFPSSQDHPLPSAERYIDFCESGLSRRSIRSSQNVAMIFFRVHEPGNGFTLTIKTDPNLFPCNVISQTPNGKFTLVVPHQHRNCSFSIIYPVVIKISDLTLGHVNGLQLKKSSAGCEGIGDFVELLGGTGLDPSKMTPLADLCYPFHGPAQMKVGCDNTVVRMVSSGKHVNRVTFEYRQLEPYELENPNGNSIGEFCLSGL

[26] = molecular target: Long-chain-fatty-acid--AMP ligase FadD28 (Mycobacterium tuberculosis, UniProt P9WQ59); assay: Fluorescence polarization aasay to screen for inhibitors that compete for the binding of FadD28 to a bisubstrate Measured in Biochemical System Using Plate Reader - 2147-01_Inhibitor_Dose_CherryPick_Activity.; assay type: functional, Mycobacterium tuberculosis H37Rv
Cytochrome P450 2C9 [27] = molecular target: T8, Cytochrome P450 2C9; details: Potency

COc1ccc(/C=C/C(=O)c2cc(F)ccc2OC(=O)c2ccccc2OC)cc1OC
EC50 (BJ [1]): 1.14 µM (inconclusive) | EC50 [2]: 2.56 µM (active) | CC50 (HeLa): 14.6 µM (not active) | EC50 (BJ [3]): 1.41 µM (active) | EC50 (BJ [4]): 2.76 µM (active)

COc1ccc(NC(=S)NC(NC(=O)c2ccccc2Cl)C(Cl)(Cl)Cl)c([N+](=O)[O-])c1 (configuration not stated)
EC50 (Beta-galactosidase [5]): > 31.5 µM (inactive) | IC50 [6]: 5.11 µM | IC50 [7]: > 66 µM (inactive) | IC50 (Beta-galactosidase [8]): > 66.6 µM (inactive) | IC50 [9]: 7.41 µM (active) | IC50 [10]: > 66.6 µM (inactive) | IC50 [11]: > 66 µM (inactive)

NS(=O)(=O)c1ccc(NC(=S)NC(=O)c2ccc3c(c2)OCO3)cc1
IC50 [12]: 19.5 µM (not active) | IC50 [13]: 33.3 µM (not active)

CC(=O)NC(c1ccccc1)c1cc([N+](=O)[O-])c2cccnc2c1O (configuration not stated)
AC50 [14]: 1.69 µM (active) | IC50 (Nonstructural protein 1): 5.52 µM (active) | EC50 [15]: > 100 µM (active)

COc1ccccc1CNC(=O)C1CCN(S(=O)(=O)c2cccc3nonc23)CC1
IC50 (cells [16]): 3.4 µM (active)

CC1C/C(=C/c2ccccn2)C(=O)/C(=C/c2ccccn2)C1 (configuration not stated)
CC50 (HeLa): > 1.22 µM (not active)

CCCCC(=O)NNC(=S)NC(=O)c1cccc([N+](=O)[O-])c1
AC50 (Cytochrome P450 2C19): 15.8 µM (inconclusive) | AC50 (Cytochrome P450 3A4): inconclusive | AC50 (Cytochrome P450 1A2): 22.4 µM (inconclusive) | IC50 (Leucine aminopeptidase): 49.1 µM (active) | IC50 [17]: > 50 µM (not active)

O=C(CCS(=O)(=O)c1ccccc1)Nc1nnc(-c2ccco2)o1
IC50 (cells [18]): 48.6 µM (active) | CC50 [19]: > 40 µM (active)

CCc1nnc(NC(=O)CSc2nc3cc4c(cc3cc2C)OCCO4)s1
AC50 (Cytochrome P450 2C19): 6.31 µM (inconclusive) | IC50 [12]: 5.82 µM (active) | AC50 (Cytochrome P450 1A2): 1.58 µM (inconclusive) | IC50 [13]: > 111 µM (not active) | AC50 (Cytochrome P450 2C9 [20]): 0.398 µM (inconclusive)

CC(C)(C)C1CCc2c(sc(NC(=O)c3cccs3)c2C(N)=O)C1 (configuration not stated)
EC50 [21]: > 79.4 µM (not active) | EC50 [22]: > 79.4 µM (not active) | EC50 [23]: > 79.4 µM (not active)

O=C(NN/C=C1\C(=O)N(c2ccc(Cl)cn2)C(=O)c2ccccc21)c1ccncc1
AC50 [24]: 5.43 µM (active) | EC50 [25]: 6.13 µM (active) | AC50 [26]: > 100 µM (inactive) | EC50 [15]: > 100 µM (active)

COc1ccc([C@@H]2OC[C@]3(COC(C)=O)[C@H](C)C=C(C)[C@@H]2[C@H]3C)cc1
AC50 (Cytochrome P450 2C9 [27]): 20 µM (inconclusive)

CCOCCn1/c(=N/C(=O)c2cc(Cl)sc2Cl)sc2cc(S(N)(=O)=O)ccc21
EC50 [21]: 16.8 µM (not active) | EC50 [22]: 13.4 µM (not active) | EC50 [23]: 14 µM (not active)
